Measured values published in ChEMBL document CHEMBL1201862, “PubChem BioAssay data set” (2004).
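Five concentrations, 48 hours, 96-well plates. Abbreviation: GI50, concentration required for 50% inhibition of growth.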 Active and inactive are the calls of the source. No stated cut-off is given here; in the data, active = GI50 up to about 1.1 µM and inactive = higher.

Tests used:
Assay in all cases: DTP human tumour cell line panel, 48 h
IGROV-1 = test system: IGROV-1
OVCAR-5 = test system: OVCAR-5
HOP-62 = test system: HOP-62
OVCAR-4 = test system: OVCAR-4
SNB-19 = test system: SNB-19
TK-10 = test system: TK-10
HCT-116 = test system: HCT-116
EKVX = test system: EKVX
SK-MEL-2 = test system: SK-MEL-2
HT-29 = test system: HT-29
OVCAR-3 = test system: OVCAR-3
U-251 = test system: U-251
HOP-92 = test system: HOP-92
SF-539 = test system: SF-539
KM12 = test system: KM12
ACHN = test system: ACHN
HCT-15 = test system: HCT-15
LOX IMVI = test system: LOX IMVI

## CC1(Cl)CC(C)(/C=C/Cl)C(Cl)CC1Cl (configuration not stated)
IGROV-1
  GI50: 12.9 µM (inactive)
OVCAR-5
  GI50: 18.9 µM (inactive)
HOP-62
  GI50: 19.9 µM (inactive)
OVCAR-4
  GI50: 17.7 µM (inactive)
SNB-19
  GI50: 17.4 µM (inactive)
TK-10
  GI50: 26.1 µM (inactive)
HCT-116
  GI50: 10.1 µM (inactive)
EKVX
  GI50: 12.1 µM (inactive)
SK-MEL-2
  GI50: 13.5 µM (inactive)
HT-29
  GI50: 11.6 µM (inactive)
OVCAR-3
  GI50: 14.5 µM (inactive)
U-251
  GI50: 16.9 µM (inactive)
HOP-92
  GI50: 0.615 µM (active)
SF-539
  GI50: 17.1 µM (inactive)
KM12
  GI50: 16.6 µM (inactive)
ACHN
  GI50: 14.7 µM (inactive)
HCT-15
  GI50: 14.1 µM

## CC1=CCCC2C(C=O)(C1)CC(C)C2(CO)CC/C(=C/CO)CO (configuration not stated)
IGROV-1
  GI50: > 100 µM (inactive)
LOX IMVI
  GI50: > 100 µM (inactive)
TK-10
  GI50: > 100 µM (inactive)
HCT-116
  GI50: 69.5 µM (inactive)
EKVX
  GI50: > 100 µM (inactive)
HT-29
  GI50: > 100 µM (inactive)
OVCAR-3
  GI50: > 100 µM (inactive)
U-251
  GI50: > 100 µM (inactive)
HOP-92
  GI50: 30 µM (inactive)
KM12
  GI50: > 100 µM (inactive)
ACHN
  GI50: > 100 µM (inactive)
HCT-15
  GI50: > 100 µM

## CCN(c1n[n+]2c(-c3ccccc3)csc2s1)c1n[n+]2c(-c3ccccc3)csc2s1
IGROV-1
  GI50: > 100 µM (inactive)
OVCAR-5
  GI50: > 100 µM (inactive)
OVCAR-4
  GI50: 35.4 µM (inactive)
SNB-19
  GI50: > 100 µM (inactive)
LOX IMVI
  GI50: 57.9 µM (inactive)
TK-10
  GI50: > 100 µM (inactive)
HCT-116
  GI50: 19.3 µM (inactive)
EKVX
  GI50: > 100 µM (inactive)
SK-MEL-2
  GI50: 44.1 µM (inactive)
HT-29
  GI50: 66.1 µM (inactive)
OVCAR-3
  GI50: 71.8 µM (inactive)
U-251
  GI50: > 100 µM (inactive)
HOP-92
  GI50: > 100 µM (inactive)
SF-539
  GI50: > 100 µM (inactive)
KM12
  GI50: 30.8 µM (inactive)
ACHN
  GI50: > 100 µM (inactive)
HCT-15
  GI50: > 100 µM

## Cc1c(C(=O)/C=C/c2ccccc2)[n+]([O-])c2ccccc2[n+]1[O-]
IGROV-1
  GI50: 17.5 µM (inactive)
OVCAR-5
  GI50: 16.7 µM (inactive)
HOP-62
  GI50: 18.1 µM (inactive)
OVCAR-4
  GI50: 15 µM (inactive)
SNB-19
  GI50: 15.7 µM (inactive)
LOX IMVI
  GI50: 14.5 µM (inactive)
TK-10
  GI50: 26.2 µM (inactive)
HCT-116
  GI50: 15.8 µM (inactive)
EKVX
  GI50: 14.9 µM (inactive)
HT-29
  GI50: 19.3 µM (inactive)
OVCAR-3
  GI50: 15.1 µM (inactive)
U-251
  GI50: 15.3 µM (inactive)
HOP-92
  GI50: 11.6 µM (inactive)
SF-539
  GI50: 15.5 µM (inactive)
KM12
  GI50: 15.9 µM (inactive)
ACHN
  GI50: 17.7 µM (inactive)
